Reference: ChEMBL document CHEMBL5385976, “Recognition of arylmethylidene derivatives of imidazothiazolotriazinones as novel tubulin polymerization inhibitors” (RSC Med Chem, 2024)

Key:
Assay type in all cases: functional
OVCAR-4 = assay: Anticancer activity against human OVCAR-4 cells assessed as cell growth at 10 umol/L incubated for 48 hrs by SRB assay relative to control; details: OVCAR-4, 48 h, dose 10 µmol/L, read-out: Activity
LOX IMVI = assay: Anticancer activity against human LOX IMVI cells assessed as cell growth at 10 umol/L incubated for 48 hrs by SRB assay relative to control; details: dose 10 µmol/L, read-out: Activity
SNB-19 = assay: Anticancer activity against human SNB-19 cells assessed as cell growth at 10 umol/L incubated for 48 hrs by SRB assay relative to control; details: SNB-19, 48 h, dose 10 µmol/L, read-out: Activity
UACC-257 = assay: Anticancer activity against human UACC-257 cells assessed as cell growth at 10 umol/L incubated for 48 hrs by SRB assay relative to control; details: UACC-257, 48 h, dose 10 µmol/L, read-out: Activity
A498 = assay: Anticancer activity against human A498 cells assessed as cell growth at 10 umol/L incubated for 48 hrs by SRB assay relative to control; details: A498, 48 h, dose 10 µmol/L, read-out: Activity
SK-MEL-2 = assay: Anticancer activity against human SK-MEL-2 cells assessed as cell growth at 10 umol/L incubated for 48 hrs by SRB assay relative to control; details: SK-MEL-2, 48 h, dose 10 µmol/L, read-out: Activity
CCRF-CEM = assay: Anticancer activity against human CCRF-CEM cells assessed as cell growth at 10 umol/L incubated for 48 hrs by SRB assay relative to control; details: dose 10 µmol/L, read-out: Activity
SN12C = assay: Anticancer activity against human SN12C cells assessed as cell growth at 10 umol/L incubated for 48 hrs by SRB assay relative to control; details: dose 10 µmol/L, read-out: Activity
HT-29 = assay: Anticancer activity against human HT-29 cells assessed as cell growth at 10 umol/L incubated for 48 hrs by SRB assay relative to control; details: HT-29, 48 h, dose 10 µmol/L, read-out: Activity
SNB-75 = assay: Anticancer activity against human SNB-75 cells assessed as cell growth at 10 umol/L incubated for 48 hrs by SRB assay relative to control; details: SNB-75, 48 h, dose 10 µmol/L, read-out: Activity
TK-10 = assay: Anticancer activity against human TK-10 cells assessed as cell growth at 10 umol/L incubated for 48 hrs by SRB assay relative to control; details: TK-10, 48 h, dose 10 µmol/L, read-out: Activity
NCI-H23 = assay: Anticancer activity against human NCI-H23 cells assessed as cell growth at 10 umol/L incubated for 48 hrs by SRB assay relative to control; details: NCI-H23, 48 h, dose 10 µmol/L, read-out: Activity
RPMI-8226 = assay: Anticancer activity against human RPMI-8226 cells assessed as cell growth at 10 umol/L incubated for 48 hrs by SRB assay relative to control; details: RPMI-8226, 48 h, dose 10 µmol/L, read-out: Activity
SW-620 = assay: Anticancer activity against human SW620 cells assessed as cell growth at 10 umol/L incubated for 48 hrs by SRB assay relative to control; details: SW-620, 48 h, dose 10 µmol/L, read-out: Activity
Malme-3M = assay: Anticancer activity against human Malme-3M cells assessed as cell growth at 10 umol/L incubated for 48 hrs by SRB assay relative to control; details: dose 10 µmol/L, read-out: Activity
HCT-116 = assay: Anticancer activity against human HCT-116 cells assessed as cell growth at 10 umol/L incubated for 48 hrs by SRB assay relative to control; details: HCT-116, 48 h, dose 10 µmol/L, read-out: Activity
SR = assay: Anticancer activity against human SR cells assessed as cell growth at 10 umol/L incubated for 48 hrs by SRB assay relative to control; details: dose 10 µmol/L, read-out: Activity
BT-549 = assay: Anticancer activity against human BT-549 cells assessed as cell growth at 10 umol/L incubated for 48 hrs by SRB assay relative to control; details: BT-549, 48 h, dose 10 µmol/L, read-out: Activity
UO-31 = assay: Anticancer activity against human UO-31 cells assessed as cell growth at 10 umol/L incubated for 48 hrs by SRB assay relative to control; details: UO-31, 48 h, dose 10 µmol/L, read-out: Activity
NCI-H460 = assay: Anticancer activity against human NCI-H460 cells assessed as cell growth at 10 umol/L incubated for 48 hrs by SRB assay relative to control; details: NCI-H460, 48 h, dose 10 µmol/L, read-out: Activity
M14 = assay: Anticancer activity against human M14 cells assessed as cell growth at 10 umol/L incubated for 48 hrs by SRB assay relative to control; details: M14, 48 h, dose 10 µmol/L, read-out: Activity
SF-539 = assay: Anticancer activity against human SF-539 cells assessed as cell growth at 10 umol/L incubated for 48 hrs by SRB assay relative to control; details: SF-539, 48 h, dose 10 µmol/L, read-out: Activity
HOP-92 = assay: Anticancer activity against human HOP-92 cells assessed as cell growth at 10 umol/L incubated for 48 hrs by SRB assay relative to control; details: HOP-92, 48 h, dose 10 µmol/L, read-out: Activity
786-0 = assay: Anticancer activity against human 786-0 cells assessed as cell growth at 10 umol/L incubated for 48 hrs by SRB assay relative to control; details: 786-0, 48 h, dose 10 µmol/L, read-out: Activity
HOP-62 = assay: Anticancer activity against human HOP-62 cells assessed as cell growth at 10 umol/L incubated for 48 hrs by SRB assay relative to control; details: HOP-62, 48 h, dose 10 µmol/L, read-out: Activity
NCI-H522 = assay: Anticancer activity against human NCI-H522 cells assessed as cell growth at 10 umol/L incubated for 48 hrs by SRB assay relative to control; details: NCI-H522, 48 h, dose 10 µmol/L, read-out: Activity
A549 = assay: Anticancer activity against human A549 cells assessed as cell growth at 10 umol/L incubated for 48 hrs by SRB assay relative to control; details: A549, 48 h, dose 10 µmol/L, read-out: Activity
U-251 = assay: Anticancer activity against human U-251 cells assessed as cell growth at 10 umol/L incubated for 48 hrs by SRB assay relative to control; details: U-251, 48 h, dose 10 µmol/L, read-out: Activity
HCC 2998 = assay: Anticancer activity against human HCC 2998 cells assessed as cell growth at 10 umol/L incubated for 48 hrs by SRB assay relative to control; details: HCC 2998, 48 h, dose 10 µmol/L, read-out: Activity
HL-60(TB) = assay: Anticancer activity against human HL-60(TB) cells assessed as cell growth at 10 umol/L incubated for 48 hrs by SRB assay relative to control; details: HL-60, 48 h, dose 10 µmol/L, read-out: Activity

| SMILES | growth at 10 µM (OVCAR-4) [%] | growth at 10 µM (LOX IMVI) [%] | growth at 10 µM (SNB-19) [%] | growth at 10 µM (UACC-257) [%] | growth at 10 µM (A498) [%] | growth at 10 µM (SK-MEL-2) [%] | growth at 10 µM (CCRF-CEM) [%] | growth at 10 µM (SN12C) [%] | growth at 10 µM (HT-29) [%] | growth at 10 µM (SNB-75) [%] | growth at 10 µM (TK-10) [%] | growth at 10 µM (NCI-H23) [%] | growth at 10 µM (RPMI-8226) [%] | growth at 10 µM (SW-620) [%] | growth at 10 µM (Malme-3M) [%] | growth at 10 µM (HCT-116) [%] | growth at 10 µM (SR) [%] | growth at 10 µM (BT-549) [%] | growth at 10 µM (UO-31) [%] | growth at 10 µM (NCI-H460) [%] | further results |
| --- | --- | --- | --- | --- | --- | --- | --- | --- | --- | --- | --- | --- | --- | --- | --- | --- | --- | --- | --- | --- | --- |
| CCN1C(=O)N(CC)C2C1NN=c1s/c(=C\c3ccc(Cl)cc3Cl)c(=O)n12 (stereo not given) | 46.1 | 18.3 | 27.9 | 68.6 | 16.9 | -20.8 | -52.1 | 21.5 | 2.8 | 19.7 | 67.7 | 28.4 | 16.5 | 20.5 | 50.4 | 9.7 | 12.3 | 15.9 | 35.9 | 5.7 | growth at 10 µM (M14): 13.8%; growth at 10 µM (SF-539): 12.8%; growth at 10 µM (HOP-92): 50.9%; growth at 10 µM (786-0): 20.6%; growth at 10 µM (HOP-62): 33.5%; growth at 10 µM (NCI-H522): -8.8%; growth at 10 µM (A549): 14.6%; growth at 10 µM (U-251): 11%; growth at 10 µM (HCC 2998): 7.2%; growth at 10 µM (HL-60(TB)): 9.4% |
| COc1cc2c(c(OC)c1OC)-c1ccc(OC)c(=O)cc1[C@@H](NC(C)=O)CC2 [COLCHICINE] | 56.4 | 26.5 | 19 | 24.9 | 15.5 | -32 | -38.2 | 46.8 | -29.9 | 19.3 | 52.7 | 12.6 | 2.3 | 26.4 | 39 | 0.2 | 5.4 | 55.1 | 21.2 | 2.9 | growth at 10 µM (M14): 1.7%; growth at 10 µM (SF-539): 7.9%; growth at 10 µM (HOP-92): 2.4%; growth at 10 µM (786-0): 15.4%; growth at 10 µM (HOP-62): 20%; growth at 10 µM (NCI-H522): -64.2%; growth at 10 µM (A549): 44.9%; growth at 10 µM (U-251): 19%; growth at 10 µM (HCC 2998): -59%; growth at 10 µM (HL-60(TB)): 13% |
